Patent US5153173A, “N-acyl derivatives of the peptidoglycan monomer, pharmaceutically acceptable salts thereof, their preparation and use as immunomodulators and immunoadjuvants” (Pliva Farmaceutska, priority 1990, dated 1992)
Values joined by “and” are separate entries in the source; they are usually repeats but may differ in a detail not shown here. Equal entries are not always repeated.

Assays:
[1] = Spleen weight of CBA mice after a single i.v. dose; format: in vivo, CBA male mice; details: for Spleen weight, % (control = 100) / Spleen weight: CBA male mice, single i.v. dose 200 μg/mouse (10 mg/kg); for Spleen weight, % (control = 100): relative to control of the same experiment; for Spleen weight: value ± spread; for change in the spleen weight: differences to control not significant, tendency of improved activity; for increase in the spleen weight in comparison to the control values: statistically significant, CBA mice, i.v. 200 μg/mouse
Experimental: (§1) The biological activity of the claimed compounds was tested on CBA male mice, 2-2.5 months old. The animals had been adapting to the laboratory conditions at least one week prior to each testing. The effectiveness of the N-acyl derivative of PGM was compared with the results achieved in control mice goups which were administered a physiological solution (negative control) and the original PGM (positive control). All tested substances were administered to the organism by intravenous (i.v.) route in a single dose of 200 μg/mouse and 10 mg/kg resp. The following effects of the immunopharmacological activity were surveyed: spleen weight, number of lymphocytes and number of PFC (plaque forming cells) according to the method of Jerne (in: Cell Bound Antibodies, Whister Institute Press, Philadelphia (1963), p.109). The spleen weight is expressed in mg. The number of the spleen lymphocytes is expressed as the absolute number in 1 ml, whereas the PFC are expressed by way of their total number and by their activity 10^6 spleen lymphocytes. The test groups and the corresponding control groups resp. comprised each 5-7 mice. The activity of each N-acyl derivative of PGM was examined at least three times in various periods. The statistical analysis was performed with the parametric Student t-test, applying the original computer programme Stat Works. The significance of the differences was assessed by two-tailed test at the level of acceptance equal or less than 5%. The summarized results of the effects of individual N-acyl derivatives on the parameters of immune response are listed in Table 1.

[2] = Z. Immun.-Forsch. 155 (1979), 312-328; cited from earlier work
[3] = tested on: spleen lymphocytes; assay: Number of spleen lymphocytes of CBA mice after a single i.v. dose; format: in vivo, CBA male mice; parameters: No spleen cells: unit not given beside the values; details: for No spleen cells, % (control = 100) / No spleen cells: CBA male mice, single i.v. dose 200 μg/mouse; for No spleen cells, % (control = 100): relative to control of the same experiment; for reduction of the number of spleen lymphocytes in comparison to the control values / increase of the number of the spleen lymphocytes: absolute number in 1 mL; for reduction of the number of spleen lymphocytes in comparison to the control values / effect upon the number of spleen lymphocytes / increase of the number of the spleen lymphocytes: CBA mice, i.v. 200 μg/mouse; for No spleen cells: absolute number of spleen lymphocytes in 1 ml, value ± spread
Experimental: as §1

[4] = cited from earlier work
[5] = Eur. J. Cancer Oncol. 19 (1983); Cancer Immunol. Immunother. 15 (1983), 18 (1984); cited from earlier work
[6] = tested on: PFC (plaque forming cells); assay: Number of PFC (plaque forming cells), method of Jerne, in CBA mice; format: in vivo, CBA male mice; details: for Abs. PFC, % (control = 100) / PFC/l mil, % (control = 100) / PFC/l mil / Abs. PFC: CBA male mice, single i.v. dose 200 μg/mouse; for Abs. PFC, % (control = 100) / PFC/l mil, % (control = 100): relative to control of the same experiment; for PFC/l mil: PFC per 10^6 spleen lymphocytes; for PFC/l mil / Abs. PFC: value ± spread; for PFC activity with respect to the number of the spleen lymphocytes, significance / increase of PFC / overall PFC activity, significance (words): Student t-test versus control; for Abs. PFC: total number of PFC
Experimental: as §1

[7] = tested on: immune response; assay: Overall immunopharmacological activity (cellular and humoral immunity) in CBA mice; format: in vivo, CBA male mice; details: for involvement in the humoral immunity / effect on the cellular immune response: conclusion from Table 1
Experimental: as §1

Row | Compound | No spleen cells, % (control = 100) [3] | Abs. PFC, % (control = 100) [6] | PFC/l mil, % (control = 100) [6] | PFC/l mil [6] | Spleen weight, % (control = 100) [1] | Spleen weight [1] | reduction of the number of spleen lymphocytes in comparison to the control values [3] | No spleen cells [3] | PFC activity with respect to the number of the spleen lymphocytes, significance [6] | Abs. PFC [6] | change in the spleen weight [1] | also measured
1 | CC(=O)NC1C(OC2C(CO)OC(O)C(NC(C)=O)C2OC(C)C(=O)NC(C)C(=O)NC(CCC(=O)NC(CCCC(N)C(=O)O)C(=O)NC(C)C(=O)NC(C)C(=O)O)C(N)=O)OC(CO)C(O)C1O (centres unmarked) [PGM, peptidoglycan monomer] | 122% and 87% and 113% and 94% and 93% and 102% and 90% | 159% and 139% and 119% and 102% and 100% and 105% and 112% and 135% | 128% and 116% and 111% and 96% and 102% and 118% and 150% | 156.1 ± 102.78 and 190.4 ± 79.53 and 117.1 ± 48.37 and 214.4 ± 95.61 and 163.6 ± 72.39 and 141.4 ± 40.57 and 219.1 ± 96.98 and 206.9 | – | – | – | – | – | – | – | Spleen weight, % (control = 100) ([1]; 10 mg/kg): 115% and 107% and 104% and 103% and 106% and 102%; immunomodulating activity [2]: immunomodulating; solubility in organic solvents ([4]; organic solvents): insoluble; solubility in water ([4]; water): well water-soluble; antimetastatic activity [5]: antimetastatic activity
2 | NA-salt of N-acetyl-PGM [Acetyl PGM] | 96% | 111% | 119% | 202.7 ± 91.97 | 106% | 112.3 ± 12.08 mg | 4-6% | 41.9 ± 5.66 | clearly expressed enhancing tendency | 85.8 ± 33.17 | – | –
3 | Na-salt of N-benzoyl-PGM [Benzoyl PGM] | 100% | 138% | 142% | 282.1 | 114% | 113.4 ± 22.28 mg | – | 34.1 ± 9.56 | clearly expressed enhancing tendency | 95.7 ± 28.45 | relative increase | effect upon the number of spleen lymphocytes [3]: no effect; involvement in the humoral immunity [7]: more significantly involved; increase of PFC / overall PFC activity, significance (words) ([6]; listed as N-benzoyl): statistically significant difference; increase of PFC / overall PFC activity, significance (words) ([6]; listed as benzoyl): significant effect
4 | Na-salt of N-capriloyl-PGM [Capriloyl PGM] | 119% | 159% | 126% | 154.2 ± 111.12 | 100% | 120.4 ± 12.36 mg | – | 46.1 ± 11.70 | – | 88.5 ± 75.95 | – | increase of the number of the spleen lymphocytes [3]: 19%; effect on the cellular immune response [7]: significant effect
5 | Na-salt of N-lauroyl-PGM [Lauroyl PGM] | 79% | 162% | 155% | 254.2 | 112% | 135.5 ± 22.60 mg | 20% | 45.2 ± 8.50 | statistically significant difference | 125.4 ± 68.45 | relative increase | activity in comparison with the original PGM ([7]; administered in the same concentration): superior activity; effect on the cellular immune response [7]: significant effect; involvement in the humoral immunity [7]: more significantly involved; increase of PFC / overall PFC activity, significance (words) ([6]; listed as N-lauroyl): statistically significant difference; increase of PFC / overall PFC activity, significance (words) ([6]; listed as lauroyl): significant effect
6 | Na-salt of N-pivaloyl-PGM [Pivaloyl PGM] | 94% | 110% | 118% | 163.8 ± 52.95 | 107% | 125.5 ± 19.44 mg | 4-6% | 42.9 ± 9.82 | – | 76.4 ± 24.94 | relative increase | –
7 | sodium salt of N-oleoyl-PGM [Oleoyl PGM] | 103% | 113% | 109% | 210.8 ± 88.40 | 121% | 131.7 ± 14.40 mg | – | 42.3 ± 7.96 | – | 97.1 ± 41.86 | – | increase in the spleen weight in comparison to the control values [1]: 21%; increase of the number of the spleen lymphocytes [3]: 3-9%
8 | sodium salt of N-stearoyl-PGM [Stearoyl PGM] | 100% | 126% | 118% | 219.2 ± 67.11 | 113% | 123.6 ± 18.63 mg | – | 37.8 ± 6.90 | – | 93.4 ± 37.55 | – | increase in the spleen weight in comparison to the control values [1]: 13%; effect upon the number of spleen lymphocytes [3]: no effect
